Laboratory results published in patent publication US10758484B2, “CED of SN-38-loaded micelles against brain tumor” (Nippon Kayaku Co., Ltd., priority 2014, dated 2020).

How the values were obtained:
[1] = Distribution in normal rat brain after CED, fluorescence microscopy; conditions: for local brain tissue damage: free SN-38 infused by CED into normal rat brain
Description: Serial coronal tissue sections (20 μm thickness) were prepared using Tissue-Tek Cryo3 (Sakura Finetek USA, Inc., Torrance, Calif.), and frozen sections were examined under a fluorescence microscope, BIOREVO BZ9000 (Keyence, Osaka, Japan), at an excitation wavelength of 377 nm and an emission wavelength 447 nm to evaluate the distribution of NK012 within the tissues. Image data were recorded using BZ-II Analyzer 1.10 software (Keyence).
Animals were euthanized immediately after infusion and serial sections were obtained using a cryostat (20 μm thickness; 1 mm interval).

[2] = tested on: 9L orthotopic brain tumor model; assay: Survival study, 9L orthotopic brain tumor model; assay type: in vivo, rat; conditions: rats with 9L tumor, 0.04 mg by single CED on day 5 after implantation
Description: Fischer 344 rats were used for the 9L model, and F344/NJc1-rnu/rnu (nude) rats were used for the U87MG model. […] Briefly, 9L and U87MG cells were harvested using trypsin-EDTA following washing once with complete medium, and resuspended in cold phosphate-buffered saline (PBS) for implantation. A cell suspension containing 1×10^4 (9L) or 2×10^5 (U87MG) cells per 10 μl of PBS was used for implantation into the striatum region of rat brains. Under deep isoflurane anesthesia, rats were placed in a small animal stereotactic frame (David Kopf Instruments, Tujunga, Calif.). […] Five microliters of cell suspension were injected at a depth of 4.5 mm from the brain surface. After a wait of 2 minutes, another 5 μl were injected at a depth of 4 mm. After a final wait of 2 minutes, the needle was removed, and the wound was closed with sutures.
Fourteen rats with implanted U87MG tumor cells were randomly divided into two groups on day 5 after tumor cell implantation and treated as follows: (1) CED of PBS (n=7) as a control, and (2) CED of NK012 (n=7). […] All other rats were monitored daily for survival. Survival was compared between the treatment groups using a log-rank test. Estimated survival was expressed as a Kaplan-Meier curve.

With “7-ethyl-10-hydroxy-camptothecine [SN-38]” as the substance, how does the “distribution after CED (description)” value ([1]; CED into normal rat striatum, fluorescence of SN-38) read?
Its value is “quite restricted”.

What about the “local brain tissue damage” value [1] of the same substance?
The value was “severe local tissue damage”.

And the “local brain tissue damage” value ([1]; listed as free SN-38)?
Its value is “increased local brain damage”.

And the median survival [2]?
The median survival was 28 days.

What about the “survival range after tumor cell implantation” value [2] of the same substance?
The value was 24 to 30 days.
